Several values for one entry are separate records, joined by “and”; a condition that tells them apart may be missing. Equal values may be shown once.
Experiment: Accelerated stability test (30° C., 65% RH, 18 weeks)
Type: physicochemical
Description: Accelerated stability test has been carried what to assess the quality of a test item prepared as the one in Example 7 during time, under the influence of temperature and humidity.
The test was conducted at 30° C., at 65% of relative humidity (RH), for 18 weeks.
[…], assessing: the appearance of each container (the one containing chloramine T and the one containing the excipients), appearance of the products therein, the weight loss of the products and the content of chloramine T.
Appearance of the test item and of the packaging was assessed under the lab light. Weight loss was assessed weighing each sample at T0 (WT0) and at the final time point (WTx) and compared with their initial value (%) according to the following formula:
Weight loss from initial %=[(WT0−WTx)*100]/(WT0)
The content of chloramine T was assessed as described in Example 7.

[1] = T8 w, single determination, 30° C./65% RH
[2] = T18 w, single determination, 30° C./65% RH

Cc1ccc(S(=O)(=O)[N-]Cl)cc1.[Na+] [Chloramine T, chloramine T]
Available Chlorine, average (T0, average): 24.53 % w/w
CHLORAMINE T anhydrous, average (T0, average): 97.46 % w/w
CHLORAMINE T tri-hydrated, average (T0, average): 78.76 % w/w
CHLORAMINE T anhydrous (T0, single determination): 97.61 % w/w and 97.31 % w/w
CHLORAMINE T tri-hydrated (T0, single determination): 78.88 % w/w and 78.64 % w/w
Available Chlorine (T0, single determination, chloramine T container of kit): 24.57 % w/w and 24.49 % w/w
Available Chlorine, average (T8 w, average, 30° C./65% RH): 0.18 % w/w
CHLORAMINE T anhydrous, average (T8 w, average, 30° C./65% RH): 0.73 % w/w
CHLORAMINE T tri-hydrated, average (T8 w, average, 30° C./65% RH): 0.59 % w/w
Available Chlorine [1]: 0.18 % w/w
CHLORAMINE T anhydrous [1]: 0.73 % w/w
CHLORAMINE T tri-hydrated [1]: 0.59 % w/w
Tx/T0 %, Available Chlorine (T18 w versus T0, 30° C./65% RH): 100.4%
Tx/T0 %, CHLORAMINE T anhydrous (T18 w versus T0, 30° C./65% RH): 100.4%
Tx/T0 %, CHLORAMINE T tri-hydrated (T18 w versus T0, 30° C./65% RH): 100.4%
Available Chlorine, average (T18 w, average, 30° C./65% RH): 24.62 % w/w
CHLORAMINE T anhydrous, average (T18 w, average, 30° C./65% RH): 78.06 % w/w
CHLORAMINE T tri-hydrated, average (T18 w, average, 30° C./65% RH): 97.83 % w/w
Available Chlorine [2]: 24.59 % w/w and 24.86 % w/w
CHLORAMINE T anhydrous [2]: 78.94 % w/w and 79.18 % w/w
CHLORAMINE T tri-hydrated [2]: 97.68 % w/w and 97.99 % w/w
content of active chloramine T compared to T0 (after 18 weeks at 30° C./65% RH): 100.4%
variations in the appearance and weight (after 18 weeks at 30° C./65% RH, envelopes): no significant variations
appearance of the product versus T0 (after 18 weeks at 30° C./65% RH, sealed container): did not present variations from T0

Source: patent US20240156754A1, “POWDER COMPOSITION FOR DISINFECTION OF THE TEATS OF DAIRY ANIMALS” (KLARECO SRL, priority 2022, published 2024)
